# Assay results taken from patent US20080057534A1, “Microbe-sensitive indicators and use of the same” (Kimberly-Clark Worldwide, Inc., priority 2006, published 2008).
# Legend:
# [1] = system: aged chicken juice; test: Dye spots on woven cotton fabric, aged chicken juice
# Excerpt: A transparent film covering half of a fresh chicken on a polystyrene tray (from supermarket) was stored at room temperature for three weeks. The pale yellow juices that collected in the polystyrene tray were collected using a pipette and used for tests.
# A 47-mg quantity of 1-docosyl-4-(4-hydroxystyryl)-pyridinium bromide (from Aldrich Chemical) was mixed with 10 g dimethylformamide. A small amount of solids remained after shaking and settling. The orange supernatant fluid was dropped onto woven cotton fabric of basis weight (29.2 cm×20.3 cm=6.888 g) to make orange-yellow colored circles. One drop of 1N sodium hydroxide solution was added to one orange-yellow spot on the cotton fabric, changing the color from orange-yellow to a pinkish orange.
# The color change was rapid on cotton.
# [2] = system: microbe contamination; test: Microbe-insensitivity of signal graphic colorants
# [3] = system: budgie feces suspension in tap water; test: Merocyanine dye coated paper towel, budgerigar feces suspension; details: coated SCOTT towel, drops of suspension
# Description: Budgerigar feces was collected from a caged pet budgie, and shaken in approximately 10 ml of Atlanta city domestic tap water. A 0.5-g quantity of N-methyl merocyanine dye, synthesized as described above, was dissolved in 20 ml deionized water and coated onto a SCOTT® kitchen roll paper towel by dipping the towel into the solution, allowing the excess to drip off, and then allowing the coated toweling to dry at ambient conditions. The paper towel was stained a deep orange color by the dye. […] As a control, Atlanta city domestic tap water was dropped onto a different area of the towel and while the color was diluted somewhat by the water, the area remained orange.
# [4] = system: bacteria and other microbes in aged urine; test: Merocyanine dye coated paper towel, aged female human urine
# Description: Female human urine was collected and stored in a glass jar at room temperature for 8 days. N-methyl merocyanine dye of the structure below was synthesized as described above. A 0.5-g quantity of the dye was dissolved in 20 ml deionized water and coated onto a SCOTT® kitchen roll paper towel by dipping the towel into the solution, allowing the excess to drip off, and then allowing the coated toweling to dry at ambient conditions. The paper towel was stained a deep orange color by the dye.
# As a control, the aged urine was filtered through a 0.2 micron filter to remove bacteria and other microbes.
# Female human urine was collected and stored for 24 hours at 37° C. Pooled female urine may be expected to have a bacterial loading of approximately 1×10^5 CFU/ml after storage under these conditions. A 0.5-g quantity of N-methyl merocyanine dye, synthesized as described above, was dissolved in 20 ml deionized water and coated onto a SCOTT® kitchen roll paper towel by dipping the towel into the solution, allowing the excess to drip off, and then allowing the coated toweling to dry at ambient conditions. The paper towel was stained a deep orange color by the dye.
# [5] = system: S. aureus (ATCC #6538); test: Reichardt's dye coated paper, response to bacterial contamination; details: paper brush-coated with 80 mg/10 mL acetonitrile; 100 μL aliquots of 10^7 to 10^4 CFU/mL
# Description: (§1) This experiment illustrated the ability of a surface coating of Reichardt's dye to respond to bacterial contamination. A sheet of paper was brush-coated with a Reichardt's dye solution (80 mg/10 mL acetonitrile). To this paper was added 100 μL aliquots of 10^7, 10^6, 10^5, and 10^4CFU/mL E. coli (ATCC #8739) or S. aureus (ATCC #6538) solutions. Water was used as a negative control. The dye color was rapidly discharged when contaminated by both types of bacteria, but more rapidly for the S. aureus. It was later determined that while both bacteria solutions were indeed at 10^7 CFU/mL concentrations, the actual concentration of the S. aureus solution was 7×10^7 CFU/mL compared to 1×10^7 CFU/mL for the E. coli solution.
# [6] = system: E. coli (ATCC #8739); test: as above; details: paper brush-coated with 80 mg/10 mL acetonitrile; 100 μL aliquots of 10^7 to 10^4 CFU/mL
# Description: as §1
# [7] = De-colorization by acid (model of microbial contamination) and reversal by strong base; type: physicochemical
# Description: A CCI Multigloss yellow base pigment (available from Color Converting, Inc. of Hazleton, Pa.) was applied to a white SMS (spunbond/meltblown/spunbond) nonwoven material (available from Kimberly-Clark Corporation of Irving, Tex.) using a standard hand roller. The treated nonwoven was oven-dried at 100° C. for approximately five minutes. A solution of Reichardt's dye was prepared by mixing about 200 mg of Reichardt's dye (obtained from Sigma-Aldrich of St. Louis, Mo.) with approximately 5 g of octanol (obtained from Sigma-Aldrich). This solution was then applied in the shape of a “t” to the dried yellow pigment on the nonwoven material using a clean hand roller. A control material was prepared by applying the Reichardt's dye/octanol mixture in the “t” pattern to a sheet of untreated white SMS nonwoven material. The samples were again oven-dried at 100° C. for approximately five minutes. In previous studies, it has been discovered that strong acids can also cause de-colorization of the dye in a manner that is representative of microbial contamination. Thus, strong acids are sometimes used to model the reaction of a microbe for initial experiments. A drop of pH 2 Aldrich buffer was applied to both the control and test substrates in three places and allowed to react for three minutes. […] An observation was made that the yellow color became even more visible as time passed (presumably due to the complete de-colorization of all dye molecules in the area of the drop as the acid dried).
# This experiment illustrated the ability of a strong base to reverse decolorization of Reichardt's dye. Several drops of Reichardt's dye (160 mg in 10 ml of acetonitrile) were pipetted onto a SCOTT® towel and allowed to dry. […] The blue/purple color of Reichardt's dye returned after the 1 N NaOH was added.
# [8] = system: S. aureus; test: Reichardt's dye coatings from different solvents on towels, S. aureus aliquots; details: for color change of coating: 100 μl S. aureus
# Description: The behavior of Reichardt's dye coatings made using various different solvents was evaluated. Solutions of Reichardt's dye in acetonitrile, isopropanol, and xylenes were prepared and the solutions were used to coat SCOTT® kitchen rolls towels and allowed to air-dry.
# [9] = system: aged chicken juice known to have a high bacterial count; test: Dye coating on ceramic surface with and without TWEEN 80, drop of aged chicken juice; details: 80 mg/10 mL acetonitrile with TWEEN 80 (200 μL)
# Description: A solution of Reichardt's dye (80 mg/10 mL acetonitrile) and TWEEN® 80 (200 μL) polyoxyethylene surfactant (from Fischer Scientific, Pittsburgh, Pa.) was prepared. This solution was then used to coat a ceramic surface and allowed to air dry. A second solution of Reichardt's dye (80 mg/10 mL acetonitrile) without surfactant was placed on the surface and allowed to air dry as well. After drying, a drop of aged chicken juice known to have a high bacterial count was placed on each coating area. […] Furthermore, the addition of TWEEN® surfactant allowed for easy removal of the dye from the surface.
# [10] = Reichardt's dye/TMB coated towel, dilute bleach solution; type: physicochemical; details: mixture of Reichardt's dye and TMB on SCOTT paper towel
# Excerpt: A mixture of Reichardt's dye and 3,3′,5,5′-tetramethylbenzidine (TMB) was coated onto a SCOTT® paper towel and allowed to air-dry.
# [11] = system: E. coli bacteria; test: Reichardt's dye/TMB coated towel, E. coli suspension drop-wise; details: coating of Reichardt's dye and TMB on SCOTT paper towel
# Excerpt: Additionally, a SCOTT® paper towel having a coating of Reichardt's dye and TMB chemistries was exposed to suspension of E. coli bacteria drop-wise. The towel area that came in contact with the bacteria decolorized to a white spot in less than 10 seconds.
# [12] = system: S. aureus; test: Reichardt's dye coated self-adhesive stickers, transfer of bacteria by gloved hand; details: 160 mg/10 mL and 80 mg/10 mL acetonitrile coatings; 10^7 CFU/mL S. aureus
# Description: A sheet of paper self-adhesive stickers (Avery-Dennison) was also brush-coated with two different concentrations of Reichardt's dye solution (160 mg/10 mL acetonitrile, 80 mg/10 mL acetonitrile). The stickers were applied to the lid and latch mechanism of a Huggies® Wet Wipes box. A gloved hand was used to transfer 10^7 CFU/mL S. aureus to the surface of the stickers.
compound,measurement,setting,value
CCCCCCCCCCCCCCCCCCCCCC[n+]1ccc(C=Cc2ccc(O)cc2)cc1.[Br-] [1-docosyl-4-(4-hydroxystyryl)-pyridinium bromide],color change,[1]; orange-yellow spots on cotton fabric,color change to very pale yellow
same,color change,[1]; pinkish-orange areas (dye + NaOH soln.) on cotton,color change from pinkish-orange to very pale yellow
Cc1ccc(Nc2ccc(Nc3ccc(C)cc3S(=O)(=O)[O-])c3c2C(=O)c2ccccc2C3=O)c(S(=O)(=O)[O-])c1.[Na+].[Na+] [Acid Green 25],sensitivity to microbes,[2],fairly microbe-insensitive
COc1cc(/C=C/c2cc[n+](C)cc2)ccc1[O-] [N-methyl merocyanine dye],color change,[3],immediate color change from deep orange to pale yellow
same,color change,"[4]; urine stored 24 hours at 37° C., approx. 1×10^5 CFU/ml expected",immediate color change from deep orange to pale yellow
same,color change,"[4]; urine stored 24 hours at 37° C., filtered through 0.2 micron filter (control)",did not cause a color change
same,color change,"[4]; urine stored 8 days, filtered through 0.2 micron filter (control)",did not cause a color change
same,color change,[4]; urine stored at room temperature for 8 days,immediate color change from deep orange to pale yellow
"[O-]c1c(-c2ccccc2)cc(-[n+]2c(-c3ccccc3)cc(-c3ccccc3)cc2-c2ccccc2)cc1-c1ccccc1 [Reichardt's dye, 4-(2,4,6-triphenylpyridinium-1-yl)-2,6-diphenylphenolate]",time of de-colorization,[5],< 1 min
same,time of de-colorization,[6],< 1 min
same,color change on acid,"[7]; 160 mg in 10 ml acetonitrile on SCOTT towel, acetic acid and Aldrich buffer pH 2.0",rapid de-colorization
same,reversal of decolorization by base,[7]; drop of 1 N NaOH on acid-decolorized spots,rapid re-colorization
same,de-colorization revealing underlying pigment,"[7]; drop of pH 2 Aldrich buffer on SMS nonwoven over yellow pigment, three minutes",underlying yellow color was clearly visible
same,color change of coating,[8]; acetonitrile solution-based coating,rapid de-colorization
same,decolorization in response to microbial contamination,"[8]; isopropanol as solvent, dye concentration adjusted",readily and easily observed
same,color change of coating,[8]; isopropanol solution-based coating,No visible color change
same,color change of coating,[8]; xylenes solution-based coating,No visible color change
same,de-colorization faster than area without TWEEN surfactant,[9],20 to 30 s
same,color response to bleach,[10],de-colorizing
same,time to decolorize to a white spot,[11],less than 10 seconds
same,color discharge of coated stickers,[12],rapidly de-colorized
"Cc1cc(-c2cc(C)c(N)c(C)c2)cc(C)c1N [TMB, 3,3′,5,5′-tetramethylbenzidine]",color response to bleach,[10],turning orange/yellow color
same,bleach indicator color development on bacteria,[11],No orange/yellow color was observed to develop
